Data set [1] has as its target T1, human calcium-sensing receptor (CaSR) (Homo sapiens, UniProt P41180).
T1 construct: host or cells: HEK293
T1 sequence (P41180 20-1078): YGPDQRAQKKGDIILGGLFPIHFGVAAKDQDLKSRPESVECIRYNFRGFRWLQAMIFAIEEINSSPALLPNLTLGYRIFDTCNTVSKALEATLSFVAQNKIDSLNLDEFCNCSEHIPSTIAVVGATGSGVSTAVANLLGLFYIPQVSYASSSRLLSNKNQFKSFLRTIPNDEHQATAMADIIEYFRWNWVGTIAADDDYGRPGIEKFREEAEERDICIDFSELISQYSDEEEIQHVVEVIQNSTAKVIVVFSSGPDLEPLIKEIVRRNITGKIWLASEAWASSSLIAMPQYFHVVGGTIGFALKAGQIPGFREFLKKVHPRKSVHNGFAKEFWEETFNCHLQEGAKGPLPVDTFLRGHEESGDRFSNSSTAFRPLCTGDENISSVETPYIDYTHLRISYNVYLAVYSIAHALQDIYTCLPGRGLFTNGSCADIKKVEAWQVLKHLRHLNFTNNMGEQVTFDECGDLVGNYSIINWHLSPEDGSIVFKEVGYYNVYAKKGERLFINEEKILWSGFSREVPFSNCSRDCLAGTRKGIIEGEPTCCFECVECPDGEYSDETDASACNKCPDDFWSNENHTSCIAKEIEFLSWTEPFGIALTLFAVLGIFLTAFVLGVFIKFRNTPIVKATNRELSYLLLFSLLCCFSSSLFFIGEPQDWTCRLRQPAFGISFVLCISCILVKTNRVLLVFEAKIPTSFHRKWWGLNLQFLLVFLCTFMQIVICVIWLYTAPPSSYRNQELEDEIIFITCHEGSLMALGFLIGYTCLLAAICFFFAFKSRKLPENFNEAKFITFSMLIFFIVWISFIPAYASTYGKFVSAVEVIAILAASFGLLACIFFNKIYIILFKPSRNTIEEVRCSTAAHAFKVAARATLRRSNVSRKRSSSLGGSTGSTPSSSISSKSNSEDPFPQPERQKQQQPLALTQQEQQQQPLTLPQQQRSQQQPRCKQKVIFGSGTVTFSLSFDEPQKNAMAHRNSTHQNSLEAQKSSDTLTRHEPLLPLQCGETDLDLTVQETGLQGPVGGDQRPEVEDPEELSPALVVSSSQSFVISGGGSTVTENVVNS
The data set is described as follows: Agonist activity on human calcium-sensing receptor (IP-One HTRF in stably transfected HEK293/CaSR cells). It counts as cell-based. The conditions noted are these: HEK293/CaSR cells, IP-One production, 60 min at 37° C., CaCl2 1.2 mM; read-out: EC50 for calcium-sensing receptor. As for the experimental part:
3.1.1 Objective: The test example is intended to measure the agonist activity of compounds 1-38 on the human calcium-sensing receptor (CaSR).
Stably transfected HEK293/CaSR cells (source: Pharmaron) were cultured in a complete medium (composition: DMEM, high glucose+10% FBS+2 mM GlutaMAX+1× Penicillin-Streptomycin+200 μg/mL Hygromycin B) and incubated at 37° C./5% CO2 till 70%-90% cell confluence. The cells were digested with TrypLE, inoculated into 384-well cell culture plates, and cultured overnight at 37° C./5% CO2. After buffer exchange, stimulation buffer (HEPES 10 mM, MgCl2 0.5 mM, KCl 4.2 mM, NaCl 146 mM, glucose 5.5 mM, LiCl 50 mM, CaCl2 1.2 mM) and various concentrations of the test example compounds were added and incubated at 37° C. for 60 min. Production of IP-One in cells was detected according to the procedures in the Cisbio IP-One Tb kit instructions. The EC50 values of various test example compounds in influencing human calcium-sensing receptor was calculated by software after the raw data of the example compounds were collected, so as to evaluate the agonist activity of the example compounds on human calcium-sensing receptor.
HTRF signal was read by an EnVision detector with an excitation wavelength of 320 nm and emission wavelengths of 620 nm and 665 nm. The signal ratio (665 nm/620 nm×10,000) was calculated and fitted non-linearly to the sample concentration in GraphPad Prism 6 using a four-parameter equation to give EC50 values of the test example compounds 1-38.

The subject of data set [2] is rat peritoneal mast cells. In words: In vitro histamine release in rat peritoneal mast cells (histamine ELISA). It counts as cell-based. The conditions noted are these: for Relative fold of histamine release in vitro: test compound final concentration 10 μM, 15 min at 37° C., relative to PBS buffer (1.00). As for the experimental part: To evaluate the in vitro histamine release levels induced by some of the test example compounds, rat peritoneal mast cells were collected by lavaging rat peritoneum with a lavage buffer (cold HBSS+25 mM HEPES containing heparin 5 U/mL, pH 7.4). After collection, the cells were centrifuged, and the lavage buffer was discarded. The cells were resuspended and washed twice with a stimulation buffer (HBSS+25 mM HEPES+1 mM CaCl2), pH 7.4). The cells were plated at a density of 10^5 cell/well (200 μL/well) and incubated at 37° C. for 15 min with positive control compound 48/80 (final concentration: 4 μg/mL), test example compounds (final concentration: 10 μM) or vehicle control. The cells were centrifuged, and cell supernatant was collected and tested for histamine concentration according to LDN Histamine ELISA kit (BAE-1000) instructions.

The subject of another data set is human red blood cells. The data set is described as follows: Hemolytic effect on human red blood cells in vitro (absorbance at 540 nm). It counts as cell-based. As to conditions: 37° C., 1 h, FIG. 1. As for the experimental part:
To evaluate the hemolytic effect of the compounds disclosed herein on red blood cells in vitro, human whole blood (100 μL) was taken and mixed with a phosphate buffer. The mixture was centrifuged at 4° C. for 10 min and the supernatant was discarded. The red blood cells were resuspended in PBS buffer (900 μL) and centrifuged at 4° C. for 10 min with the supernatant discarded, and the procedures above were repeated once. The test example compounds were dissolved in 1×PBS buffer to a final concentration of 100 μg/mL. The red blood cells were resuspended in solutions of various test example compounds, an octylphenoxy poly(ethyleneoxy)ethanol-100 solution or PBS buffer, and incubated at 37° C. for 1 h. After incubation, the cells were centrifuged at 4° C. for 10 min and the supernatant (100 μL) was pipetted and transferred to a 96-well plate. The absorbance at 540 nm was detected for evaluating the hemolytic effect of the test example compounds on red blood cells in vitro.

A further data set relates to 5/6 nephrectomized rats. The data set is described as follows: In vivo efficacy in 5/6 nephrectomized rat model after continuous administration (plasma parathyroid hormone, serum calcium). The source says:
3.5.1 Objective: to evaluate the efficacy of some of the compounds disclosed herein in reducing plasma parathyroid hormone level and serum calcium level after continuous administration in a 5/6 nephrectomized rat model.
The rats were adapted. After anesthesia, ⅔ of the left kidney was surgically resected, and after 1 week of recovery, the right kidney was resected to establish the 5/6 nephrectomized rat model. After the second resection, the animals were normally fed for 2 weeks, tested for creatinine (CREA) and plasma parathyroid hormone level, and randomized as per the parathyroid hormone level into 4 groups of 10, including normal saline group, compound 17—low dose group, compound 17—high dose group and etelcalcetide group. After randomization, the normal saline group, compound 17—low dose group, compound 17—high dose group and etelcalcetide group were respectively administered with 1 dose of normal saline, 1 mg/kg of compound 17, 2 mg/kg of compound 17 and 1 mg/kg of etelcalcetide through the tail vein daily for 28 days. During the treatment period, parameters such as animal weight, plasma parathyroid hormone level and serum calcium were detected. The first day of treatment was taken as day 1.

pEC50: −log10 of the molar value. Square brackets hold non-standard residues; d marks the D form. Peptide text beside a SMILES is read from it. * marks the point of attachment. dPhe(4-Me) = Cc1ccc(C[C@@H](N)C(=O)O)cc1; Cys(free,S-linked) = N[C@@H](CS*)C(=O)O; d(hLeu) = CC(C)CC[C@@H](N)C(=O)O; dChg = N[C@@H](C(=O)O)C1CCCCC1; dTle = CC(C)(C)[C@@H](N)C(=O)O; dAbu = CC[C@@H](N)C(=O)O

As to `CC(=O)N[C@H](CSSC[C@H](N)C(=O)O)C(=O)N[C@H](CCCNC(=N)N)C(=O)N[C@H](CCCNC(=N)N)C(=O)N[C@H](Cc1ccc(C)cc1)C(=O)N[C@H](CCCNC(=N)N)C(=O)N[C@H](C)C(=O)N[C@H](CCCNC(=N)N)C(N)=O` [Compound 12, Ac-c(C)-r-r-[D-Phe(4-CH3)]-r-a-r-NH2] (Ac-[dC](Cys(free,S-linked))[dR][dR][dPhe(4-Me)][dR][dA][dR]-NH2), in data set [1], the pEC50 (as a rule, the EC50 on a negative log10 scale, so that one unit is a factor of ten) is 5.89. In addition, the “Relative fold of histamine release in vitro” value (“Relative fold” below) in data set [2] was found to be 2.81. For the same compound, in the data set on human red blood cells (100 μg/mL in PBS), the “hemolytic effect on red blood cells” value was “no significant hemolytic effect”.
With `CC(=O)N[C@H](CSSC[C@H](N)C(=O)O)C(=O)N[C@H](CCCNC(=N)N)C(=O)N[C@H](CCCNC(=N)N)C(=O)N[C@H](CCC(C)C)C(=O)N[C@H](CCCNC(=N)N)C(=O)N[C@H](C)C(=O)N[C@H](CCCNC(=N)N)C(N)=O` [Compound 19, Ac-c(C)-r-r-(D-hLeu)-r-a-r-NH2] (Ac-[dC](Cys(free,S-linked))[dR][dR][d(hLeu)][dR][dA][dR]-NH2), the pEC50 in data set [1] was 5.69. For the same compound, the “Relative fold” value in data set [2] is reported as 2.07. In addition, in the data set with human red blood cells (100 μg/mL in PBS), the “hemolytic effect on red blood cells” value is given as “no significant hemolytic effect”.
On to `CC(=O)N[C@H](CSSC[C@H](N)C(=O)O)C(=O)N[C@H](CCCNC(=N)N)C(=O)N[C@H](CCCNC(=N)N)C(=O)N[C@@H](C(=O)N[C@H](CCCNC(=N)N)C(=O)NCC(=O)N[C@H](CCCNC(=N)N)C(N)=O)C(C)C` [Compound 30, Ac-c(C)-r-r-v-r-G-r-NH2] (Ac-[dC](Cys(free,S-linked))[dR][dR][dV][dR]G[dR]-NH2), for which, in data set [1], the negative logarithm of the EC50 (pEC50) is 4.71. Also, the “Relative fold” value in data set [2] turned out to be 1.51.
Take `CC[C@@H](NC(=O)[C@@H](CCCNC(=N)N)NC(=O)[C@@H](CCCNC(=N)N)NC(=O)[C@@H](CSSC[C@H](N)C(=O)O)NC(C)=O)C(=O)N[C@H](CCCNC(=N)N)C(=O)NCC(=O)N[C@H](CCCNC(=N)N)C(N)=O` [Compound 32, Ac-c(C)-r-r-(D-Abu)-r-G-r-NH2] (Ac-[dC](Cys(free,S-linked))[dR][dR][dAbu][dR]G[dR]-NH2): in data set [1], the pEC50 was 4.88. For the same compound, the “histamine release levels in rat peritoneal mast cells in vitro relative to etelcalcetide” value in data set [2] (10 μM, comparison with etelcalcetide) is “reduction in histamine release levels”. Also, the “Relative fold” value in data set [2] is recorded as 1.41.
In the case of `CC(=O)N[C@H](CSSC[C@H](N)C(=O)O)C(=O)N[C@H](CCCNC(=N)N)C(=O)N[C@H](CCCNC(=N)N)C(=O)N[C@H](CCC(C)C)C(=O)N[C@H](CCCNC(=N)N)C(=O)N[C@H](CO)C(=O)N[C@H](CCCNC(=N)N)C(N)=O` [Compound 33, Ac-c(C)-r-r-(D-hLeu)-r-s-r-NH2] (Ac-[dC](Cys(free,S-linked))[dR][dR][d(hLeu)][dR][dS][dR]-NH2), the negative logarithm of the EC50 (pEC50) in data set [1] was 5.30. Besides, the “Relative fold” value in data set [2] is on record as 2.50.
For the compound `CC(=O)N[C@H](CSSC[C@H](N)C(=O)O)C(=O)N[C@H](CCCNC(=N)N)C(=O)N[C@H](CCCNC(=N)N)C(=O)N[C@H](CCC(C)C)C(=O)N[C@H](CCCNC(=N)N)C(=O)NCC(=O)N[C@H](CCCNC(=N)N)C(N)=O` [Compound 34, Ac-c(C)-r-r-(D-hLeu)-r-G-r-NH2] (Ac-[dC](Cys(free,S-linked))[dR][dR][d(hLeu)][dR]G[dR]-NH2), the pEC50 in data set [1] was 4.91. Further, the “Relative fold” value in data set [2] is 2.28.
As to `CC(=O)N[C@H](CSSC[C@H](N)C(=O)O)C(=O)N[C@H](CCCNC(=N)N)C(=O)N[C@H](CCCNC(=N)N)C(=O)N[C@@H](C(=O)N[C@H](CCCNC(=N)N)C(=O)N[C@H](CO)C(=O)N[C@H](CCCNC(=N)N)C(N)=O)C1CCCCC1` [Compound 35, Ac-c(C)-r-r-(D-Chg)-r-s-r-NH2] (Ac-[dC](Cys(free,S-linked))[dR][dR][dChg][dR][dS][dR]-NH2), in data set [1], the pEC50 was 4.89. In addition, in data set [2], the “Relative fold” value is 2.06.
For `CC(=O)N[C@H](CSSC[C@H](N)C(=O)O)C(=O)N[C@H](CCCNC(=N)N)C(=O)N[C@H](CCCNC(=N)N)C(=O)N[C@@H](C(=O)N[C@H](CCCNC(=N)N)C(=O)N[C@H](CO)C(=O)N[C@H](CCCNC(=N)N)C(N)=O)C(C)(C)C` [Compound 37, Ac-c(C)-r-r-(D-Tle)-r-s-r-NH2] (Ac-[dC](Cys(free,S-linked))[dR][dR][dTle][dR][dS][dR]-NH2), the pEC50 in data set [1] is 4.81. In addition, the “Relative fold” value in data set [2] turned out to be 2.23.
Regarding `CC(=O)N[C@H](CSSC[C@H](N)C(=O)O)C(=O)N[C@H](C)C(=O)N[C@H](CCCNC(=N)N)C(=O)N[C@H](CCCNC(=N)N)C(=O)N[C@H](CCCNC(=N)N)C(=O)N[C@H](C)C(=O)N[C@H](CCCNC(=N)N)C(N)=O` [Etelcalcetide, Ac-c(C)-a-r-r-r-a-r-NH2, reference compound], in data set [1], the pEC50 was 5.17. In addition, in data set [2], the “Relative fold” value is recorded as 1.70. Moreover, the serum calcium reduction entry in the data set with 5/6 nephrectomized rats (after administration on days 1, 14 and 28) is “reversible serum calcium reduction”. In addition, in the data set on 5/6 nephrectomized rats (minimum of serum calcium on days 14 and 28 compared to day 1), the “extent of serum calcium reduction with the period of treatment” value is listed as “did not increase with the period of treatment”.
As for “octylphenoxy poly(ethyleneoxy)ethanol-100 [reference compound]”, the “hemolytic effect on red blood cells” value with human red blood cells (positive control solution) is “significant hemolytic effect”.

These data come from US20230041996A1, “CALCIUM-SENSING RECEPTOR AGONIST COMPOUND AND APPLICATION THEREOF” (BEIJING TUO JIE BIOPHARMACEUTICAL CO. LTD., priority 2019, published 2023).
